The values below come from ChEMBL document CHEMBL1136331, “Photoregulation of deacylation rate of acyl trypsin derived from photoresponsive inverse substrate” (Bioorg Med Chem Lett, 2003).

Assay [1] in a line: Kinetic parameter for rate constant of acylation step (k2) was determined.
Assay [2] is described as follows: Ratio of kinetic parameter (k2) to that of kinetic parameter(Ks).
A short description of assay [3]: Kinetic parameter for rate constant of deacylation step (k3) was determined.

In turn, `N=C(N)Nc1ccc(OC(=O)c2ccc(/N=N/c3ccccc3)cc2)cc1` showed a k2 in assay [1] of 1.06 s⁻¹. Besides, the k2/Ks in assay [2] worked out at 151000 M⁻¹ s⁻¹. The same compound had a k3 in assay [3] of 0.000378 s⁻¹.

`N=C(N)Nc1ccc(OC(=O)c2ccc(/N=N\c3ccccc3)cc2)cc1` registered a k2 in assay [1] of 7.75 s⁻¹. Further, in assay [2], the k2/Ks turned out to be 164000 M⁻¹ s⁻¹. In assay [3], the k3 amounted to 0.000702 s⁻¹.
